“Also recorded” adds a separate entry of the source. Read-outs that look alike come from different tables or passages of the source.
Columns and labels:
[1] = Kane et al. (2006); cited from earlier work
ppErk1/2 = experiment: ppERK levels in cortex of mice, Western blot; type: in vivo
Experimental: FIGS. 4A-4C. […] After this time mice were sacrificed and the levels of pcRaf-1[Ser338] and pERK1/2 were analyzed by Western blot as described in Experimental Procedures. […] (n=5) (FIG. 4B) in the cortex than untreated Tg mice (n=4). The differences were significant for ppERKs, *P=0.016 and pcRaf-1[Ser338], *P=0.018. (FIG. 4C) Phosphorylation of cRaf-1 at Ser 259 and Ser 338. […] NT, wild-type age-matched control littermates.
(§1) Western blotting. […] (1:100) (GenScript Corporation, NJ, USA).

IκBα = IκBα levels in cortex of mice, Western blot; conditions: two months treatment
APPswe (Tg) and NT mice [2] = experiment: Cognitive interference task of working memory; type: in vivo
Source text: Interference test details. Cognitive Interference Task. This task involves two radial arm water maze set-ups in two different rooms, and different sets of visual cues. The task requires animals to remember a set of visual cues, so that following interference with a different set of cues, the initial set of cues can be recalled to successfully solve the radial arm water maze task. A set of […] behavioral measures were examined. Behavioral measures are: A1-A3 (Composite three-trial recall score from first 3 trials performed in RAWM “A”), “B” (proactive interference measure attained from a single trial in RAWM “B”), A4 (retroactive interference measure attained during a single trial in RAWM “A”), and “A5” (delayed-recall measure attained from a single trial in RAWM “A” following a 20 min delay between A4 and A5). As with the standard RAWM task, this interference task involves the platform location being changed daily to a different arm for both of the RAWM set-ups utilized, and different start arms for each day of testing for both RAWM set-ups. For A1 and B trials, the animal is initially allowed one minute to find the platform on their own before they are guided to the platform. Then the actual trial is performed in each case. As with the standard RAWM task, animals were given 60-s to find the escape platform, with the number of errors and escape latency recorded for each trial.
Cognitive interference task. This task involves two RAWM setups in two different rooms, and three different sets of visual cues. The task requires animals to remember a set of visual cues, so that following interference with a different set of cues, the initial set of cues can be recalled to successfully solve the RAWM task. A set of four behavioral measures was examined through six successive daily trials. Behavioral measures were A1-A3 (Composite three-trial recall score from first three trials performed in RAWM “A”), “B” (proactive interference measure attained from a single trial in RAWM “B”), A4 (retroactive interference measure attained during a single trial in RAWM “A”), and “A5” (delayed-recall measure attained from a single trial in RAWM “A” following a 20 min delay between A4 and A5). As with the standard RAWM task, this interference task involves the platform location being changed daily to a different arm for both of the RAWM setups utilized, and different start arms for each day of testing for both RAWM setups. For A1 and B trials, the animal is initially allowed 1 min to find the platform on its own before being guided to the platform. Then the actual trial is performed in each case. Also, between each trial, animals were placed into a Y-maze apparatus for 30 seconds as an inter-trial interfering experience. As with the standard RAWM task, animals were given 60 s to find the escape platform for each trial, with the number of errors and escape latency recorded for each trial.
For statistical analysis of RAWM data, the 8 days of pre-treatment testing (four 2-day blocks) or the 9 days of during-treatment testing (three 3-day blocks) were evaluated for individual blocks, as well as over all blocks, using one-way ANOVAs. Thereafter, post hoc pair-by-pair differences between groups were resolved with the Fisher LSD (least significant difference) test.

Aβ40 = experiment: Total Aβ40 levels in cortex, ELISA; type: in vivo; conditions: Tg mice, Study 2 (4 mo. treatment), ns vs Tg
iNOS = iNOS levels in cortex of mice, Western blot; type: in vivo
Source text: (§2) FIGS. 5A-5E. […] NT, wild type age-matched control littermates.
as §1

Aβ42 = experiment: Total Aβ42 levels in cortex, ELISA; type: in vivo; conditions: Tg mice, ns vs Tg
Experimental: Determination of Aβ levels. The levels of Aβ1-40 and Aβ1-42 were quantified in the brain tissues by ELISA.
Total Aβ levels. Brain tissues were prepared by sonication of the samples in 5 M guanidine HCl, and 50 mM Tris-HCl. pH 8.0. After sonication, samples were incubated for 3 h at room temperature and centrifuged at 16,000×g for 20 min at 4° C. The supernatants were stored at −80° C. For analysis, the supernatants were diluted using PBS with 5% BSA and 0.03% Tween-20 supplemented with 1× protease inhibitor cocktail (Roche, USA) and further used to determine total Aβ levels using a commercial ELISA kit (Invitrogen, Carlsbad, Calif., USA), according to the manufacturer's recommendations.
Aβ levels represent the concentration of amyloid peptides in the cortex (A, C) and hippocampus (B, D) of the mice expressed as picogram by milligram (pg/mg) of brain tissue. Total peptide levels correspond to the levels found in the supernatant of cortical tissues homogenized in 5 M guanidinium chloride. Soluble Aβ levels correspond to the levels found in the supernatant of hippocampal tissues of the mice homogenized in the Triton-soluble fractions. ns, Not significant (P>0.05).

pcRaf-1[Ser338] = pcRaf-1[Ser338] levels in cortex of mice, Western blot; type: in vivo; conditions: wild type NT mice
pNF-κB[Ser276] = pNF-κB[Ser276] levels in cortex of mice, Western blot; type: in vivo; conditions: for levels of pNF-κB[Ser276] vs control Tg mice: cortex, 20 mg/kg/day, four months
Source text: as §2, §1

p-CREB[Ser 133] = experiment: CREB phosphorylated at Ser 133 in cortex, Western blot; type: in vivo; conditions: Tg mice, four months treatment, vs control Tg mice
Source text: as §1

APPswe (Tg) and NT mice [3] = type: in vivo; conditions: during treatment (20 mg/kg/day)
Source text: RAWM. For the RAWM task of spatial working memory (Arendash et al. (2001b); Arendash et al. (2007); Ethell et al. (2006)), an aluminum insert was placed into a 100 cm circular pool to create six radially distributed swim arms emanating from a central circular swim area (Arendash et al. (2001a); Ethell et al. (2006)). An assortment of 2-D and 3-D visual cues surrounded the pool. The number of errors prior to locating which one of the six swim arms contained a submerged escape platform (9 cm diameter) was determined in each of five trials every day. There was a 20-min time delay between the 4th trial (T4; final acquisition trial) and 5th trial (T5; memory retention trial). […] During each trial (60 s maximum), the mouse was returned to that trial's start arm upon swimming into an incorrect arm and the number of seconds required to locate the submerged platform was recorded. […]
For statistical analysis of RAWM data, the 8 days of pre-treatment testing (four 2-day blocks) or the 9 days of during-treatment testing (three 3-day blocks) were evaluated for individual blocks, as well as over all blocks, using one-way ANOVAs. […] One-way ANOVAs were employed for each of the four behavioral measures analyzed, followed by post hoc Fisher's LSD test to determine group differences. […]

Cox-2 = Cox-2 levels in cortex of mice, Western blot; type: in vivo; conditions: for levels of Cox-2 vs control Tg mice: cortex, 20 mg/kg/day, four months
PKA [4] = experiment: PKA kinase activity ELISA in brain extracts of treated mice; conditions: Tg mice, four months treatment
PKA [5] = conditions: cited from earlier work
[6] = test system: embryonic rat cortical cells; experiment: Aβ toxicity assay, cell viability by MTT; type: cell-based; conditions: 5 μM Aβ + 10 μM inhibitor, 48 h; Aβ alone 73% (GW5074 experiment), 70% (ZM336372 experiment)
pNFκB/p65 (Ser276) = experiment: Aβ-dependent NFκB/p65 phosphorylation at serine 276 in cortical cells, Western blot; type: cell-based, rat; conditions: 10 μM GW5074 + 5 μM Aβ, 48 h, in comparison to Aβ treated cells
[7] = test system: embryonic rat cortical cells; experiment: Aβ toxicity assay, calcein-AM/propidium iodide staining; type: cell-based; conditions: 5 μM Aβ + 10 μM GW5074, 48 h
[8] = wild type mice (data not shown)

SMILES: CNC(=O)c1cc(Oc2ccc(NC(=O)Nc3ccc(Cl)c(C(F)(F)F)c3)cc2)ccn1 [Sorafenib, 4-(4-phenoxy)-N2-methylpyridine-2 carboxamide 4-methylbenzenesulfonate]
- blood-brain barrier [1]: crosses the blood-brain barrier
- decrease in levels of ppERK compared to control Tg mice (ppErk1/2; Tg mice, cortex, 20 mg/kg gavage, two months): 29%
- ERK phosphorylation vs untreated NT mice (ppErk1/2; wild type NT mice): No changes
- higher levels of IκBα protein expression compared to control Tg mice (IκBα): 117%
- working memory in interference test vs vehicle-treated APPswe mice (APPswe (Tg) and NT mice [2]; APPswe mice, 2 months treatment, p<0.01): significant improvement in working memory
- performance in any measure of cognitive interference testing, NT+sorafenib vs NT (APPswe (Tg) and NT mice [2]; NT mice): no differences in performance
- 20-min delayed recall (A5), beneficial effects (APPswe (Tg) and NT mice [2]; Tg mice, final day of testing): not evident
- three-trial recall (A1-A3) (APPswe (Tg) and NT mice [2]; Tg mice, final day of testing, errors and escape latency): performed identically to NT mice; also recorded: comparable to NT controls
- three-trial recall (A1-A3) (APPswe (Tg) and NT mice [2]; Tg mice, first day of interference testing, compared to NT mice): impaired
- 20-min delayed recall (A5) (APPswe (Tg) and NT mice [2]; Tg mice, first day of testing): significantly better and no different from NT mice; also recorded: much better delayed recall performance
- proactive interference (B) (APPswe (Tg) and NT mice [2]; Tg mice, first day of testing): relatively high escape latency
- proactive interference (B) (APPswe (Tg) and NT mice [2]; Tg mice, last day of testing): performed significantly better than Tg controls and identically to NT mice; also recorded: performed substantially better than Tg controls
- retroactive interference (A4) (APPswe (Tg) and NT mice [2]; first and last day of testing): no effect of genotype or sorafenib treatment
- Aβ40 total levels (Aβ40): 36,140 ± 9.281 ns, P = 0.5193 pg/mg
- lower expression of iNOS than control Tg mice (iNOS; Tg mice, cortex, 20 mg/kg/day, four months): 81%
- iNOS levels vs untreated wild type mice (iNOS; [8]): No differences
- Aβ42 total levels (Aβ42; Study 1 (2 mo. treatment)): 22,570 ± 5,946 ns, P = 0.4568 pg/mg
- Aβ42 total levels (Aβ42; Study 2 (4 mo. treatment)): 71,980 ± 26,210 ns, P = 0.9914 pg/mg
- cRaf-1 phosphorylation vs untreated NT mice (pcRaf-1[Ser338]): No changes
- levels of pNF-κB[Ser276] vs control Tg mice (pNF-κB[Ser276]): significantly lower levels
- levels of pNF-κB[Ser276] vs control Tg mice (pNF-κB[Ser276]; listed as sorafenib): significantly reduced
- pNF-κB[Ser276] levels vs untreated wild type mice (pNF-κB[Ser276]; [8]): No differences
- CREB phosphorylation at Ser 133 in cortex (p-CREB[Ser 133]): significantly increased; also recorded: significantly higher
- T5 errors over all blocks of RAWM testing (APPswe (Tg) and NT mice [3]; NT mice, NT vehicle 0.9±0.4): 1.1±0.2 errors
- T5 errors over all blocks of RAWM testing (APPswe (Tg) and NT mice [3]; Tg mice, Tg vehicle 1.9±0.3): 1.9±0.2 errors
- levels of Cox-2 vs control Tg mice (Cox-2): lower levels
- levels of Cox-2 vs control Tg mice (Cox-2; listed as sorafenib): substantially lower levels
- Cox-2 levels vs untreated wild type mice (Cox-2; [8]): No differences
- PKA activity in cortex (PKA [4]): restored PKA activity in Tg mice to values similar to those observed in NT mice
- PKA activity in cortex (PKA [4]; listed as sorafenib): comparable to NT mice
- IC50 (PKA [5]): > 10 µM

SMILES: Cc1ccc(NC(=O)c2cccc(N(C)C)c2)cc1NC(=O)c1ccc(O)cc1 [ZM336372, N-[5-(dimethyl-aminobenzamide)-2-methylphenyl]-4-hydroxybenzamide]
- cell survival, % of control levels (MTT) [6]: 86%

SMILES: O=C1Nc2ccc(I)cc2/C1=C/c1cc(Br)c(O)c(Br)c1 [GW5074, 5-iodo-3-[(3,5-dibromo-4-hydroxyphenyl)methy-lene]-2-indolinone]
- cell survival, % of control levels (MTT) [6]: 93%
- NFκB/p65 phosphorylation at serine 276 (pNFκB/p65 (Ser276)): nine-fold decrease
- number of PI stained cells after Aβ exposure [7]: decreased dramatically
